This passage reports EC50 results from US8354419B2, “Benzimidazole analogues for the treatment or prevention of flavivirus infections” (Vertex Pharmaceuticals Incorporated, priority 2009, dated 2013).

The subject of this assay is HCV (Ib) RNA replication. Nature of the assay: Cell-based luciferase reporter HCV (1b) RNA replication assay (replicon cell lines Huh-7 5.2 and ET). The settings on record: Hepatitis C virus, Huh-7, 96 h, HCV 1b genotype replicon, luciferase readout, 4 days incubation; read-out: EC50_1b. Also noted: species or system Hepatitis C virus. An outline of the steps: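 Compounds were tested at eleven concentrations in duplicate over 4 days at 37 °C, 5% CO2. The cells were luciferase-reporter HCV 1b replicon lines 5.2 (NS5A adaptive mutation) or ET (NS4B mutation). Luminescence of lysates was measured, and IC50s were derived by nonlinear curve fitting.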
In general terms: In a reporter assay the amount or activity of a reporter protein is the signal.
On to `O=C(OCc1ccccc1)N1CCCC[C@H]1c1nc2cc(C#C/C=C/c3ccc4[nH]c([C@@H]5CCCCN5C(=O)OCc5ccccc5)nc4c3)ccc2[nH]1` [Compound 40, (S)-2-(5-{(E)-4-[2-((S)-1-Benzyloxycarbonyl-piperidin-2-yl)-1H-benzoimidazol-5-yl]-but-1-en-3-ynyl}-1H-benzoimidazol-2-yl)-piperidine-1-carboxylic acid benzyl ester], for which the EC50 lay within 5 to 5000 nM.
Consider `O=C(OCc1ccccc1)N1CCCC[C@H]1c1nc2cc(C#CC#Cc3ccc4[nH]c([C@@H]5CCCCN5C(=O)OCc5ccccc5)nc4c3)ccc2[nH]1` [Compound 41, (S)-2-(5-{4-[2-((S)-1-Benzyloxycarbonyl-piperidin-2-yl)-1H-benzoimidazol-5-yl]-buta-1,3-diynyl}-1H-benzoimidazol-2-yl)-piperidine-1-carboxylic acid benzyl ester], for which the EC50 was in the range of 5 to 5000 nM.
The same measure for `COC(=O)N[C@H](C(=O)N1CCC[C@H]1c1nc2cc(-c3cc(F)c(-c4ccc5nc([C@@H]6CCCN6C(=O)[C@@H](NC(=O)OC)C(C)C)[nH]c5c4)cc3F)ccc2[nH]1)C(C)C` [Compound 42, ((S)-1-{(S)-2-[5-(4-{2-[(S)-1-((S)-2-Methoxycarbonylamino-3-methyl-butyryl)-pyrrolidin-2-yl]-1H-benzoimidazol-5-yl}-2,5-difluoro-phenyl)-1H-benzoimidazol-2-yl]-pyrrolidine-1-carbonyl}-2-methyl-propyl)-carbamicacid methyl ester]: no more than 5 nM; for `COC(=O)N[C@H](C(=O)N1CCC[C@H]1c1nc2cc(-c3cnc(-c4ccc5[nH]c([C@@H]6CCCN6C(=O)[C@@H](NC(=O)OC)C(C)C)nc5c4)c(C)c3)ccc2[nH]1)C(C)C` [Compound 43, Methyl N-[(1S)-1-[(2S)-2-[5-[5-[2-[(2S)-1-[(2S)-2-(methoxycarbonylamino)-3-methyl-butanoyl]pyrrolidin-2-yl]-1H-benzimidazol-5-yl]-3-methyl-2-pyridyl]-1H-benzimidazol-2-yl]pyrrolidine-1-carbonyl]-2-methyl-propyl]carbamate]: no more than 5 nM.
The value for `COC(=O)N[C@H](C(=O)N1CCC[C@H]1c1nc2cc(-c3cscc3-c3ccc4[nH]c([C@@H]5CCCN5C(=O)[C@@H](NC(=O)OC)C(C)C)nc4c3)ccc2[nH]1)C(C)C` [Compound 44, Dimethyl-(2S,2′S)-1,1′-((2S,2′S)-2,2′-(5,5′-(thiophene-3,4-diyl)bis(1H-benzo[d]imidazole-5,2-diyl))bis(pyrrolidine-2,1-diyl))bis(3-methyl-1-oxobutane-2,1-diyl)dicarbamate] was no more than 5 nM; that for `CC(C)[C@H](NC(=O)O[C@H]1CCOC1)C(=O)N1CCC[C@H]1c1nc2cc(-c3cscc3-c3ccc4[nH]c([C@@H]5CCCN5C(=O)[C@@H](NC(=O)O[C@H]5CCOC5)C(C)C)nc4c3)ccc2[nH]1` [Compound 45, bis((S)-tetrahydrofuran-3-yl)-(2S,2′S)-1,1′-((2S,2′S)-2,2′-(5,5′-(thiophene-3,4-diyl)bis(1H-benzo[d]imidazole-5,2-diyl))bis(pyrrolidine-2,1-diyl))bis(3-methyl-1-oxobutane-2,1-diyl)dicarbamate] was 5 to 5000 nM.
`CC(C)[C@H](NC(=O)O[C@H]1CCOC1)C(=O)N1CCC[C@H]1c1nc2cc(-c3ccsc3-c3ccc4[nH]c([C@@H]5CCCN5C(=O)[C@@H](NC(=O)O[C@H]5CCOC5)C(C)C)nc4c3)ccc2[nH]1` [Compound 47, bis((S)-tetrahydrofuran-3-yl)-(2S,2′S)-1,1′-((2S,2′S)-2,2′-(5,5′-(thiophene-2,3-diyl)bis(1H-benzo[d]imidazole-5,2-diyl))bis(pyrrolidine-2,1-diyl))bis(3-methyl-1-oxobutane-2,1-diyl)dicarbamate]: the EC50 fell in the range of 5 to 5000 nM.
On to `CC(C)(C)OC(=O)N1CCCC[C@H]1c1nc2cc(C#Cc3ccc4nc([C@@H]5CSCN5C(=O)OC(C)(C)C)[nH]c4c3)ccc2[nH]1` [Compound 48], for which the EC50 is greater than 5000 nM.
The same measure for `O=C(OCc1ccccc1)N1CCCC[C@H]1c1nc2cc(C#Cc3ccc4nc([C@@H]5CCCN5C(=O)OCc5ccccc5)[nH]c4c3)ccc2[nH]1` [Compound 49]: 5 to 5000 nM.
